Measured values published in patent publication US6184252A, “2-amino-1,3-alkanediol compositions for inducing/stimulating hair growth and/or retarding hair loss” (priority 1996, dated 2001).
Read-outs that look alike come from different tables or passages of the source.

Legend:
Assay type in all cases: cell-based
[1] = system: HaCat cells (cultured keratinocytes); assay: Cell viability (mitochondrial respiration, XTT kit); conditions: for activation at 0.05 µM: Homo sapiens, HaCaT, read-out: increase in the number of cells with respect to the control (cell viability)
Procedure: Measurement of the Effect of 2-amino-1,3-octadecanediol and Derivatives Thereof on Cell Viability
HaCat cells were cultured as in Example 1.
(§1) These were then inoculated at a density of 20,000 cells per well in the 24 wells of plates of the multiwell type (Costar, France).
(§2) 24 hours after inoculation, the cells were contacted with the various test compounds in a KBM medium (marketed by Clonetics) containing insulin at 5 μg/ml and hydrocortisone at 0.5 μg/ml.
(§3) Cell viability was evaluated 48 hours later by measuring the mitochondrial respiration. This was carried out using an XTT kit, marketed by Boehringer, according to the supplier's instructions.
The compounds A, B and C of the above Example 1 were tested at a concentration of 50 nM, as well as a derivative based on sphingenine: N-palmitoylsphingenine marketeed by Sigma (C16H).

HaCat cells [2] = assay: Cell viability in the presence of doxorubicin (XTT kit); conditions: for increase in the number of cells with respect to the control (A): read at 48 hours
Procedure: Effect of 2-amino-1,3-octadecanediol and Derivatives Thereof on Cell Viability in the Presence of Doxorubicin
HaCat cells were cultured as in Example 2.
as §2
The cells were cultured in the presence of the 2-amino-1,3-octadecanediol to be tested until evaluation of cell viability.
Doxorubicin at a concentration of 1 μg/ml was added to the culture medium for 2 hours at the beginning of the experiment.
as §3
(§4) The experiment was carried out with the following compounds at a concentration of 50 nM:
in comparison with the culture medium without alkanediol and without doxorubicin (A) and with a medium containing only doxorubicin (B).
The results, expressed as percentage, represent the increase in the number of cells with respect to the control (A), namely, with respect to a culture produced under the same conditions in the absence of alkanediol compounds and of doxorubicin.

hair follicle = assay: Survival of the hair follicle in vitro; conditions: Homo sapiens, read-out: percentage of surviving follicles
Procedure: Viable in vitro hair follicles were prepared according to the technique described in FR-95/08,465, filed Jul. 12, 1995 and assigned to the assignee hereof. From a scalp biopsy, a rather fine strip of scalp was isolated using a scalpel. The adipose tissue surrounding the follicles was removed with microforceps while avoiding damage to the hair bulb. The follicle was cut and removed with a scalpel under a microscope in order to separate it from its epidermal and dermal surroundings. The fragment obtained was maintained in culture in Williams E medium, at 37° C., in a humid atmosphere in the presence of CO2. The survival of the follicles was evaluated each day by counting the living follicles, according to their morphological appearance. The results are reported as percentage of surviving follicles per day. The experiment was carried out employing the following compounds at a concentration of 50 nM: in comparison with the culture medium without alkanediol (A).

[3] = system: HaCat cells (keratinocytes); assay: Effect on the cell cycle (BrdU incorporation, entry into S phase); conditions: 50 nM; for activation at 0.05 µM: Homo sapiens, HaCaT, read-out: increase in the number of cells which have entered into the S phase with respect to the control
Procedure: Measurement of the Effect of 2-amino-1,3-octadecanediol and Derivatives Thereof on the Cell Cycle
HaCat cells were cultured as above.
as §1
24 hours after inoculation, the cells were contacted with the various test compounds in a KBM medium (marketed by Clonetics) containing insulin at 5 μg/ml and hydrocortisone at 0.5 μg/ml and 5-bromo-2'-deoxyuridine (BrdU) at 1 μM.
[…] This was carried out using a BrdU fast kit, marketed by Boehringer, according to the supplier's instructions.
The compounds A, B and C of the above example were tested at a concentration of 50 nM.
The results, expressed as percentage, represent the increase in the number of cells which have entered into the S phase with respect to the control, namely, with respect to a culture produced under the same conditions in the absence of alkanediol compounds.

[4] = system: HaCat cells (cultured keratinocytes); assay: Proliferative influence on cultured keratinocytes (cell counting with Coulter Counter); conditions: Homo sapiens, 120 h, 5 days, read-out: increase in the number of cells with respect to the control; for activation at 0.0005 µM: 0.5 nM; for activation at 0.005 µM: 5 nM; for activation at 0.05 µM: 50 nM; for activation at 0.5 µM: 500 nM
Procedure: Measurement of the Proliferative Influence of 2-amino-1,3-octadecanediol and Derivatives Thereof on Cultured Keratinocytes
HaCat cells (Boukamp and coworkers, J. Cell Biol., vol. 106, March 1988, 761-771) were cultured in DMEM medium (marketed by Gibco) containing amino acids (mixture of nonessential amino acids) at a concentration of 0.1 mM, penicillin and streptomycin at respective concentrations of 50 International Units per […] and of 50 μg/ml, glutamine at a concentration of 2 mM, sodium pyruvate at a concentration of 1 mM and 10% fetal calf serum. These cells were inoculated at a density of 10,000 cells per well in the 24 wells of plates of the multiwell type (Costar, France). 24 hours after inoculation, the cells were contacted with the various test compounds in a KBM medium (marketed by Clonetics) containing 0.15 mM of calcium ion, insulin at 5 μg/ml, hydrocortisone at 0.5 μg/ml and lipid-free bovine serum albumin at 1 μg/ml.
Cellular counting was carried out 5 days after the addition of the various ceramides using a cell counter of the Coulter Counter type.
The various compounds were tested at 0.5 nM, 5 nM, 50 nM and 500 nM.
The results, expressed as percentage, represent the increase in the number of cells with respect to the control, namely, with respect to a culture produced under the same conditions in the absence of sphinganine.

HaCat cells [5] = system: HaCat cells
Procedure: Effect of 2-amino-1,3-octadecanediol and Derivatives Thereof on Cell Viability in the Presence of a Compound Based on Sphingenine, N-acetylsphingenine
The cells were cultured as in Example 5. N-Acetylsphingenine was at a concentration of 10 μM.
as §4
in comparison with the culture medium without alkanediol and without N-acetylsphingenine (A) and with a medium containing only N-acetylsphingenine (B).
The results, expressed as percentage, represent the number of cells with respect to the control (A), namely, with respect to a culture produced under the same conditions in the absence of alkanediol compounds and of N-acetylsphingenine.

[6] = alkanediol 50 nM in presence of doxorubicin 1 μg/ml for 2 hours

Row | Compound | viability of the cultured keratinocytes (in words) ([1]; 50 nM, 48 hours) | increase in the number of cells with respect to the control (A) (HaCat cells [2]; [6]) | number of keratinocytes which have entered into the S phase (in words) [3] | activation at 0.05 µM ([3]; 72 hours) | activation at 0.05 µM ([3]; 96 hours) | activation at 0.0005 µM [4] | activation at 0.005 µM [4] | activation at 0.05 µM [4] | activation at 0.5 µM [4] | other results
1 | CCCCCCCCCCCCCCCC(O)C(N)CO (stereo not drawn) [A, 2-amino-1,3-octadecanediol] | increased the viability of the cultured keratinocytes | +25% | increase the number of keratinocytes which have entered into the S phase | 36% | 41% | 7% | 15% | 17% | 30% | activation at 0.05 µM ([1]; 50 nM, 48 hours): 17%; viability at 0.05 µM (hair follicle; 0 h, 50 nM, day 0): 100%; viability at 0.05 µM (hair follicle; 24 h, 50 nM, day 1): 100%; viability at 0.05 µM (hair follicle; 120 h, 50 nM, day 5): 90%; viability at 0.05 µM (hair follicle; 240 h, 50 nM, day 10): 20%; viability at 0.05 µM (hair follicle; 360 h, 50 nM, day 15): 0%; viability at 0.05 µM (hair follicle; 480 h, 50 nM, day 20): 0%; viability at 0.05 µM (hair follicle; 600 h, 50 nM, day 25): 0%
2 | CCCCCCCC/C=C\CCCCCCCC(=O)NC(CO)C(O)CCCCCCCCCCCCCCC (stereo not drawn) [B, 2-oleoylamino-1,3-octadecanediol] | increased the viability of the cultured keratinocytes | +28% | increase the number of keratinocytes which have entered into the S phase | 43% | 51% | 17% | 24% | 23% | 14% | activation at 0.05 µM ([1]; 48 h): 23%; viability at 0.05 µM (hair follicle; 0 h): 100%; viability at 0.05 µM (hair follicle; 24 h): 100%; viability at 0.05 µM (hair follicle; 120 h): 100%; viability at 0.05 µM (hair follicle; 240 h): 78%; viability at 0.05 µM (hair follicle; 360 h): 33%; viability at 0.05 µM (hair follicle; 480 h): 0%; viability at 0.05 µM (hair follicle; 600 h): 0%
3 | CCCCCCCCCCCCCCCC(O)C(CO)NC(=O)C(O)CCCCCCCCCCCCCC (stereo not drawn) [C, 2-N-(2-hydroxyhexadecanoyl)amino-1,3-octadecanediol] | increased the viability of the cultured keratinocytes | +23% | increase the number of keratinocytes which have entered into the S phase | 17% | 43% | 26% | 36% | 42% | 22% | activation at 0.05 µM ([1]; 50 nM, 48 hours): 20%; viability at 0.05 µM (hair follicle; 0 h, 50 nM, day 0): 100%; viability at 0.05 µM (hair follicle; 24 h, 50 nM, day 1): 100%; viability at 0.05 µM (hair follicle; 120 h, 50 nM, day 5): 100%; viability at 0.05 µM (hair follicle; 240 h, 50 nM, day 10): 50%; viability at 0.05 µM (hair follicle; 360 h, 50 nM, day 15): 42%; viability at 0.05 µM (hair follicle; 480 h, 50 nM, day 20): 25%; viability at 0.05 µM (hair follicle; 600 h, 50 nM, day 25): 0%
4 | CCCCCCCCCCCCC/C=C/[C@@H](O)[C@H](CO)NC(=O)CCCCCCCCCCCCCCC [Compound C16H, N-palmitoylsphingenine, reference compound] | elicited a cytotoxic effect on the cultured cells | – | – | – | – | – | – | – | – | increase in the number of cells with respect to the control (cell viability) ([1]; 50 nM, 48 hours): -25%
5 | CCCCCCCCCCCCCCCCCCCCCCCC(=O)NC(CO)C(O)CCCCCCCCCCCCCCC (stereo not drawn) [D, 2-tetracosanoylamino-1,3-octadecanediol] | – | – | – | – | – | 22% | 27% | 33% | 42% | –
6 | COc1cccc2c1C(=O)c1c(O)c3c(c(O)c1C2=O)C[C@@](O)(C(=O)CO)C[C@@H]3O[C@H]1C[C@H](N)[C@H](O)[C@H](C)O1 [Doxorubicin, reference compound] | – | – | – | – | – | – | – | – | – | cell viability in the presence of doxorubicin (in words) (HaCat cells [2]; doxorubicin 1 μg/ml for 2 hours, alkanediol 50 nM): caused a decrease in cell viability; increase in the number of cells with respect to the control (A) (HaCat cells [2]; only doxorubicin, 1 μg/ml for 2 hours): -20%
7 | CCCCCCCCCCCCCCCC(O)C(CO)NC(C)=O (stereo not drawn) [E, 2-acetylamino-1,3-octadecanediol] | – | – | – | – | – | 17% | 34% | 29% | 35% | –
8 | CCCCCCCCCCCCCCCC(O)C(CO)NC(=O)CCCCCCC (stereo not drawn) [F, 2-octanoylamino-1,3-octadecanediol] | – | – | – | – | – | 15% | 18% | 31% | 27% | –
9 | CCCCCCCCCCCCC/C=C/[C@@H](O)[C@H](CO)NC(C)=O [N-Acetylsphingenine] | – | – | – | – | – | – | – | – | – | cell viability in the presence of N-acetylsphingenine (in words) (HaCat cells [5]; N-acetylsphingenine 10 μM, alkanediol 50 nM): caused a decrease in cell viability; number of cells with respect to the control (A) (HaCat cells [5]; human, hacat cells, 48 h, 10 µM): 57%
